From PubChem BioAssay AID192 (DTP/NCI, 2004) come the findings set out here.

Structures are written as SMILES. “And” between values parts separate entries of the source, which are not always exact repeats. Equal entries are not always repeated. Toxic doses and inconclusive results are not listed.

The experiment relates to BDF1 mice, B16 melanoma ip, median survival T/C. In words: NCI In Vivo Anticancer Drug Screen. Data for tumor model B16 Melanoma (intraperitoneal) in B6D2F1 (BDF1) mice. The conditions noted are these: endpoint: median survival time, higher = longer survival. An outline of the steps: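 Compounds were tested in mice carrying transplantable tumors. Survival or tumor size was recorded, and each value is the treated-group measurement (T) divided by that of the vehicle-treated control group (C).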

[1] abbreviates: dose: 50.0 mg/kg/injection, schedule: Q01DX009 (ip), vehicle: saline.
Setting [2] is: dose: 100.0 mg/kg/injection, schedule: Q01DX009 (ip), vehicle: saline.
Where [3] appears, read: dose: 200.0 mg/kg/injection, schedule: Q01DX009 (ip), vehicle: saline.
[4] abbreviates: dose: 6.25 mg/kg/injection, schedule: Q01DX009 (ip), vehicle: Klucel (hydroxypropylcellulose) (HPC).
Where [5] appears, read: dose: 12.5 mg/kg/injection, schedule: Q01DX009 (ip), vehicle: Klucel (hydroxypropylcellulose) (HPC).
Where [6] appears, read: dose: 25.0 mg/kg/injection, schedule: Q01DX009 (ip), vehicle: Klucel (hydroxypropylcellulose) (HPC).
[7] abbreviates: dose: 100.0 mg/kg/injection, schedule: Q01DX009 (ip), vehicle: Klucel (hydroxypropylcellulose) (HPC).
Where [8] appears, read: dose: 200.0 mg/kg/injection, schedule: Q01DX009 (ip), vehicle: Klucel (hydroxypropylcellulose) (HPC).
[9] abbreviates: dose: 400.0 mg/kg/injection, schedule: Q01DX009 (ip), vehicle: Klucel (hydroxypropylcellulose) (HPC).
Where [10] appears, read: dose: 100.0 mg/kg/injection, schedule: Q01DX009 (ip), vehicle: saline with Tween-80.
The mark [11] stands for this setting: dose: 400.0 mg/kg/injection, schedule: Q01DX009 (ip), vehicle: saline with Tween-80.
[12] abbreviates: dose: 50.0 mg/kg/injection, schedule: Q04DX003 (ip), vehicle: Klucel (hydroxypropylcellulose) (HPC).
Where [13] appears, read: dose: 100.0 mg/kg/injection, schedule: Q04DX003 (ip), vehicle: Klucel (hydroxypropylcellulose) (HPC).
The mark [14] stands for this setting: dose: 200.0 mg/kg/injection, schedule: Q04DX003 (ip), vehicle: Klucel (hydroxypropylcellulose) (HPC).
Setting [15] is: dose: 3.12 mg/kg/injection, schedule: Q01DX009 (ip), vehicle: Klucel (hydroxypropylcellulose) (HPC).
Setting [16] is: dose: 50.0 mg/kg/injection, schedule: Q01DX009 (ip), vehicle: saline with Tween-80.

`Nc1ncc(N)c(N)n1`: the T/C under setting [1] is 102 % of control, the T/C under setting [2] was 112 % of control and the T/C under setting [3] is 108 % of control.

With `ClCCCCCCBr`, the T/C is, setting by setting: (dose: 75.0 mg/kg/injection, schedule: Q01DX009 (ip), vehicle: Klucel (hydroxypropylcellulose) (HPC)) 122 % of control; (dose: 150.0 mg/kg/injection, schedule: Q01DX009 (ip), vehicle: Klucel (hydroxypropylcellulose) (HPC)) 122 % of control; (dose: 300.0 mg/kg/injection, schedule: Q01DX009 (ip), vehicle: Klucel (hydroxypropylcellulose) (HPC)) 105 % of control.

For `CCNC(C)(C)C(SSSC(c1ccc(Cl)cc1)C(C)(C)NCC)c1ccc(Cl)cc1` (stereo not drawn), the T/C under setting [4] is 108 % of control; the T/C under setting [5] was 94 % of control; the T/C under setting [6] is 89 % of control and 94 % of control.

As to `CCOC(=O)/C=C/c1c[nH]c(C(=O)OCC)c1`, the T/C is, setting by setting: (dose: 50.0 mg/kg/injection, schedule: Q01DX009 (ip), vehicle: Klucel (hydroxypropylcellulose) (HPC)) 102 % of control; under setting [7], 96 % of control; under setting [8], 99 % of control; under setting [9], 98 % of control.

As to `OC(Cc1nc2ccccc2s1)(C(F)(F)F)C(F)(F)F`, the T/C is 111 % of control under setting [10]; 89 % of control (dose: 100.0 mg/kg/injection, schedule: Q04DX003 (ip), vehicle: saline with Tween-80); 108 % of control under setting [11]; 102 % of control (dose: 400.0 mg/kg/injection, schedule: Q04DX003 (ip), vehicle: saline with Tween-80).

For `O=C(O)CCC(=O)O`, the T/C runs as follows: (dose: 10.0 mg/kg/injection, schedule: Q01DX009 (ip), vehicle: water) 101 % of control [middle of 4 runs]; (dose: 20.0 mg/kg/injection, schedule: Q01DX009 (ip), vehicle: water) 102 % of control [middle of 4 runs]; (dose: 40.0 mg/kg/injection, schedule: Q01DX009 (ip), vehicle: water) 101 % of control and 119 % of control and 98 % of control; (dose: 80.0 mg/kg/injection, schedule: Q01DX009 (ip), vehicle: water) 93 % of control and 100 % of control and 104 % of control; (dose: 160.0 mg/kg/injection, schedule: Q01DX009 (ip), vehicle: water) 88 % of control and 94 % of control and 114 % of control; (dose: 320.0 mg/kg/injection, schedule: Q01DX009 (ip), vehicle: water) 106 % of control.

For `N=C(N)c1ccc(/C=C/c2ccc(C(=N)N)cc2O)cc1`, the T/C reads like this: (dose: 3.12 mg/kg/injection, schedule: Q01DX009 (ip), vehicle: water) 105 % of control and 107 % of control; (dose: 6.25 mg/kg/injection, schedule: Q01DX009 (ip), vehicle: water) 88 % of control and 101 % of control; (dose: 12.5 mg/kg/injection, schedule: Q01DX009 (ip), vehicle: water) 101 % of control and 107 % of control; (dose: 25.0 mg/kg/injection, schedule: Q01DX009 (ip), vehicle: water) 97 % of control and 114 % of control; (dose: 50.0 mg/kg/injection, schedule: Q01DX009 (ip), vehicle: water) 93 % of control and 104 % of control.

In the case of `NC(N)=NC(N)=Nc1ccc(-c2ccc(N=C(N)N=C(N)N)cc2)cc1`, the T/C is, setting by setting: (dose: 6.25 mg/kg/injection, schedule: Q01DX009 (ip), vehicle: saline with Tween-80) 102 % of control; (dose: 12.5 mg/kg/injection, schedule: Q01DX009 (ip), vehicle: saline with Tween-80) 96 % of control.

`COc1ccc(/C(C)=N\NC(=O)c2ccccc2)cc1`: the T/C under setting [12] is 95 % of control, the T/C under setting [13] is 102 % of control and the T/C under setting [14] is 87 % of control.

With `CC[CH2][Sn]([CH2]CC)([CH2]CC)[O][Sn]([CH2]CC)([CH2]CC)[CH2]CC`, the T/C by setting is: (dose: 0.25 mg/kg/injection, schedule: Q01DX009 (ip), vehicle: saline) 95 % of control; (dose: 0.5 mg/kg/injection, schedule: Q01DX009 (ip), vehicle: saline) 100 % of control; (dose: 0.5 mg/kg/injection, schedule: Q04DX003 (ip), vehicle: saline) 117 % of control; (dose: 1.0 mg/kg/injection, schedule: Q01DX009 (ip), vehicle: saline) 92 % of control; (dose: 1.0 mg/kg/injection, schedule: Q04DX003 (ip), vehicle: saline) 117 % of control.

Consider `COc1ccc(C(Nc2ccccc2)C(=O)c2ccccc2)cc1` (stereo not drawn), for which the T/C was 90 % of control under setting [15]; 106 % of control under setting [4]; 89 % of control under setting [5]; 89 % of control and 90 % of control under setting [6].

For the compound `COc1c(O)c2c(c3cc(C(=O)N4CCc5c4c(O)c(OC)c4[nH]c(C(=O)N6CC7CC78C6=CC(=O)c6[nH]cc(C)c68)cc54)[nH]c13)CCN2C(N)=O` (stereo not drawn), the T/C (dose: 10.0 micrograms/kg/injection, schedule: Q01DX009 (ip), vehicle: other) was 181 % of control.

On to `CC(=O)Nc1ccc(OC(=O)Nc2cccc3ccccc23)cc1`, for which the T/C reads like this: under setting [12], 96 % of control; under setting [13], 106 % of control; under setting [14], 93 % of control.

For the compound `Nc1ccn(C2OC(COP(=O)(O)O)C(O)C2O)c(=O)n1` (stereo not drawn), the T/C was 105 % of control (dose: 16.0 mg/kg/injection, schedule: Q01DX009 (ip), vehicle: saline with Tween-80); 105 % of control (dose: 32.0 mg/kg/injection, schedule: Q01DX009 (ip), vehicle: saline with Tween-80); 115 % of control (dose: 64.0 mg/kg/injection, schedule: Q01DX009 (ip), vehicle: saline with Tween-80); 122 % of control (dose: 128.0 mg/kg/injection, schedule: Q01DX009 (ip), vehicle: saline with Tween-80).

On to `Cc1ccc(Cl)cc1NC(=O)c1ccccc1C(=O)O`, for which the T/C under setting [7] is 93 % of control, the T/C under setting [8] was 93 % of control and the T/C under setting [9] is 103 % of control.

Turning to `CC(=Nc1ccccc1)C1=C(O)C(CC(C)C)NC1=O` (stereo not drawn), the T/C is, setting by setting: under setting [16], 107 % of control; under setting [10], 103 % of control; (dose: 200.0 mg/kg/injection, schedule: Q01DX009 (ip), vehicle: saline with Tween-80) 96 % of control; under setting [11], 88 % of control.

As for `CC(N)CCC(C)(C)O` (stereo not drawn), the T/C is, setting by setting: (dose: 25.0 mg/kg/injection, schedule: Q01DX009 (ip), vehicle: saline with Tween-80) 102 % of control; under setting [16], 105 % of control; under setting [10], 107 % of control.

Regarding `COCC1OC(OC2OCC3OC4(OCC(O)(C(C)OC)C5OCOC54)OC3C2OC)C(OC)C(O)C1OC1OC(C)C(OC)C(OC2OC(C)C3OC4(CC(O)C(OC5CC(OC6CC(C)([N+](=O)[O-])C(OC)C(C)O6)C(OC(=O)c6c(C)c(Cl)c(O)c(Cl)c6OC)C(C)O5)C(C)O4)OC3(C)C2O)C1O` (stereo not drawn), the T/C (dose: 6.25 mg/kg/injection, schedule: Q01DX009 (ip), vehicle: saline) was 97 % of control; the T/C (dose: 12.5 mg/kg/injection, schedule: Q01DX009 (ip), vehicle: saline) was 95 % of control; the T/C (dose: 25.0 mg/kg/injection, schedule: Q01DX009 (ip), vehicle: saline) was 100 % of control; the T/C under setting [1] was 101 % of control.

For `CCCCC(=O)OC1CC2CCC1(C)C2(C)C` (stereo not drawn), under setting [7], the T/C was 90 % of control.

As to `Cn1c[n+](C)cc1C(=O)[O-]`, the T/C is, setting by setting: under setting [2], 115 % of control; under setting [3], 115 % of control; (dose: 400.0 mg/kg/injection, schedule: Q01DX009 (ip), vehicle: saline) 109 % of control.

Regarding `CC1OC2COC(C)OC2C(C(O)COC(c2ccccc2)(c2ccccc2)c2ccccc2)O1` (stereo not drawn), the T/C runs as follows: (dose: 1.56 mg/kg/injection, schedule: Q01DX009 (ip), vehicle: Klucel (hydroxypropylcellulose) (HPC)) 89 % of control; under setting [15], 89 % of control; under setting [4], 88 % of control; under setting [12], 92 % of control; under setting [13], 97 % of control; under setting [8], 109 % of control.

On to `O=C(N/N=C/c1ccc(N(CCCl)CCCl)cc1)c1ccc(C(=O)N/N=C/c2ccc(N(CCCl)CCCl)cc2)cc1`, for which the T/C (dose: 25.0 mg/kg/injection, schedule: Q04DX003 (ip), vehicle: Klucel (hydroxypropylcellulose) (HPC)) was 97 % of control; the T/C under setting [12] was 90 % of control and 100 % of control; the T/C under setting [13] is 97 % of control; the T/C under setting [14] was 90 % of control and 95 % of control.
